# According to patent US20220132758A1, “INTRODUCTION OF ACTIVE SUBSTANCES AND/OR DYE INTO PLANT TISSUE” (priority 2018, published 2022):
# System: bark beetle
# Experiment: Imidacloprid-impregnated beech shaped pieces shot into bark beetle-infested spruce trees
# Format: in vivo
# Conditions: 7% imidacloprid solution; 8 pieces per tree; after 3 weeks; bark 10 to 50 cm above the shooting sites
# Description: 24 shaped pieces according to FIG. 1c, Z-. X-. Y-direction 45×13×3 mm, angle α 90°, angle β 60°, made of beech wood (Fagus sylvatica) were impregnated with a neonicotinoid, a 7% imidacloprid solution (solvent dichloromethane) and then dried. The chips were shot 8 at a time into bark beetle-infested spruce trees using a gas cramping device (Alsafix AGRAFEUSE SANS FIL 12GASCR). After 3 weeks, the bark in the region 10 to 50 cm above the shooting sites was removed and the feeding tunnels exposed.
smiles,measurement,value
O=[N+]([O-])NC1=NCCN1Cc1ccc(Cl)nc1 [imidacloprid],living larvae in feeding tunnels,No living larvae were found
